Laboratory results from US20240059691A1 (KALVISTA PHARMACEUTICALS LIMITED, priority 2020, published 2024).

What follows are molecules tested against Human Factor XIIa (Homo sapiens (Human), UniProt P00748) (assay: Determination of FXIIa inhibition (fluorogenic substrate H-DPro-Phe-Arg-AFC, IC50 assay)). Details: substrate H-DPro-Phe-Arg-AFC at Km, 25° C.; class scale A-G.
Format: biochemical
Procedure: Determination of FXIIa Inhibition
In vitro inhibition of Factor XIIa was determined using an IC50 assay based on standard literature methods (see e.g Baeriswyl et al., ACS Chem. Biol., 2015, 10 (8) 1861; Bouckaert et al., European Journal of Medicinal Chemistry 110 (2016) 181). Human Factor XIIa (Enzyme Research Laboratories) was incubated at 25° C. with the fluorogenic substrate H-DPro-Phe-Arg-AFC (Peptide Protein Science) and various concentrations of the test compound. Protease activity was measured by monitoring the accumulation of liberated fluorescence from the substrate over 5 min at 25° C. The linear rate of fluorescence increase per minute was expressed as percentage (%) activity. The Km for the cleavage of the substrate by FXIIa was determined by standard transformation of the Michaelis-Menten equation. The compound inhibitor assays were performed at substrate Km concentration. IC50 values were calculated as the concentration of inhibitor giving 50% inhibition (IC50) of the uninhibited enzyme activity (100%).

Sequence of Human Factor XIIa (P00748 373-615): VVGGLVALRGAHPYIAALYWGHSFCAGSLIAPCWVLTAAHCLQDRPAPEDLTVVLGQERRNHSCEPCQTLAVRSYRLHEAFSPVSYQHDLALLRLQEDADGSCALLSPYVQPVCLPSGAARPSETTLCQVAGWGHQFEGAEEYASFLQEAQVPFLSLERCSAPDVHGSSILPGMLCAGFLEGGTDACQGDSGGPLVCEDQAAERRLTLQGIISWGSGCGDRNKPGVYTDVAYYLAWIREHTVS

SMILES | IC50 [nM]
CN1CCC(CNc2ccc(CNc3cc(C(F)(F)F)cc4[nH]ccc34)cn2)CC1 [Example 1237, N-((6-(((1-methylpiperidin-4-yl)methyl)amino)pyridin-3-yl)methyl)-6-(trifluoromethyl)-1H-indol-4-amine] | 10000 to 40000
CCc1cc2c(NCc3ccc(NCC4CCN(C)CC4)nc3)ccnc2[nH]1 [Example 1239, 2-ethyl-N-((6-(((1-methylpiperidin-4-yl)methyl)amino)pyridin-3-yl)methyl)-1H-pyrrolo[2,3-b]pyridin-4-amine] | 10000 to 40000
CN1CCC(CNc2ccc(CNc3cc(Cl)cc4[nH]ccc34)cn2)CC1 [Example 1241, 6-chloro-N-((6-(((1-methylpiperidin-4-yl)methyl)amino)pyridin-3-yl)methyl)-1H-indol-4-amine] | 10000 to 40000
Nc1nccc2c(NCc3ccc(N4CCn5c(nnc5C(F)(F)F)C4)nc3)nccc12 [Example 1318, N1-((6-(3-(trifluoromethyl)-5,6-dihydro-[1,2,4]triazolo[4,3-a]pyrazin-7(8H)-yl)pyridin-3-yl)methyl)-2,6-naphthyridine-1,5-diamine] | 10000 to 40000
COCC1c2nnc(C(F)(F)F)n2CCN1c1cc(C)c(CNc2cccc3c(N)nccc23)cn1 (stereo not shown) [Example 1319, N5-((6-(8-(methoxymethyl)-3-(trifluoromethyl)-5,6-dihydro-[1,2,4]triazolo[4,3-a]pyrazin-7(8H)-yl)-4-methylpyridin-3-yl)methyl)isoquinoline-1,5-diamine] | 10 to 100
Cc1cc(N2CCn3c(nnc3C(F)(F)F)C2)ncc1CNc1ccc2nccn2c1 [Example 1322, N-((4-methyl-6-(3-(trifluoromethyl)-5,6-dihydro-[1,2,4]triazolo[4,3-a]pyrazin-7(8H)-yl)pyridin-3-yl)methyl)imidazo[1,2-a]pyridin-6-amine] | 10000 to 40000
Cc1cc(N2CCn3c(nnc3C(F)(F)F)C2)ncc1CNc1ccnc(N)c1 [Example 1323, N4-((4-methyl-6-(3-(trifluoromethyl)-5,6-dihydro-[1,2,4]triazolo[4,3-a]pyrazin-7(8H)-yl)pyridin-3-yl)methyl)pyridine-2,4-diamine] | 10000 to 40000
CCC1c2nnc(C(F)(F)F)n2CCN1c1cc(C)c(CNc2cccc3c(N)nccc23)cn1 (stereo not shown) [Example 1331, N5-((6-(8-ethyl-3-(trifluoromethyl)-5,6-dihydro-[1,2,4]triazolo[4,3-a]pyrazin-7(8H)-yl)-4-methylpyridin-3-yl)methyl)isoquinoline-1,5-diamine] | 100 to 300
CN(Cc1ccc(N2CCn3c(nnc3C(F)(F)F)C2)nc1)c1cccc2c(N)nccc12 [Example 1332, N5-methyl-N5-((6-(3-(trifluoromethyl)-5,6-dihydro-[1,2,4]triazolo[4,3-a]pyrazin-7(8H)-yl)pyridin-3-yl)methyl)isoquinoline-1,5-diamine] | 3000 to 10000
Cc1cc(N2CCn3c(nnc3C(F)(F)F)C2)ncc1CNc1ccc2c(N)nccc2c1 [Example 1333, N6-((4-methyl-6-(3-(trifluoromethyl)-5,6-dihydro-[1,2,4]triazolo[4,3-a]pyrazin-7(8H)-yl)pyridin-3-yl)methyl)isoquinoline-1,6-diamine] | 100 to 300
Cc1cc(N2CCn3c(nnc3C(F)(F)F)C2)ncc1CNc1ccc2c(N)ncc(Cl)c2c1 [Example 1334, 4-chloro-N6-((4-methyl-6-(3-(trifluoromethyl)-5,6-dihydro-[1,2,4]triazolo[4,3-a]pyrazin-7(8H)-yl)pyridin-3-yl)methyl)isoquinoline-1,6-diamine] | 300 to 1000
Nc1nccc2c(NCc3cnc(N4CCn5c(nnc5C(F)(F)F)C4)c(CO)c3)cccc12 [Example 1335, (5-(((1-aminoisoquinolin-5-yl)amino)methyl)-2-(3-(trifluoromethyl)-5,6-dihydro-[1,2,4]triazolo[4,3-a]pyrazin-7(8H)-yl)pyridin-3-yl)methanol] | 10000 to 40000
CCc1nc(N2CCn3c(nnc3C(F)(F)F)C2)ccc1CNc1cccc2c(N)nccc12 [Example 1336, N5-((2-ethyl-6-(3-(trifluoromethyl)-5,6-dihydro-[1,2,4]triazolo[4,3-a]pyrazin-7(8H)-yl)pyridin-3-yl)methyl)isoquinoline-1,5-diamine] | 300 to 1000
Nc1nccc2c(NS(=O)(=O)c3ccc(N4CCn5c(nnc5C(F)(F)F)C4)nc3)cccc12 [Example 1337, N-(1-aminoisoquinolin-5-yl)-6-(3-(trifluoromethyl)-5,6-dihydro-[1,2,4]triazolo[4,3-a]pyrazin-7(8H)-yl)pyridine-3-sulfonamide] | 300 to 1000
Cc1cc(N2CCn3c(nnc3C(F)(F)F)C2)ncc1CNc1ccnc2c1CCN2 [Example 1339, N-((4-methyl-6-(3-(trifluoromethyl)-5,6-dihydro-[1,2,4]triazolo[4,3-a]pyrazin-7(8H)-yl)pyridin-3-yl)methyl)-2,3-dihydro-1H-pyrrolo[2,3-b]pyridin-4-amine] | 10000 to 40000
Cc1cc2c(NCc3cnc(N4CCn5c(nnc5C(F)(F)F)C4)cc3C)cncc2[nH]1 [Example 1341, 2-methyl-N-((4-methyl-6-(3-(trifluoromethyl)-5,6-dihydro-[1,2,4]triazolo[4,3-a]pyrazin-7(8H)-yl)pyridin-3-yl)methyl)-1H-pyrrolo[2,3-c]pyridin-4-amine] | 1000 to 3000

SMILES | IC50 [nM]
Cc1cc(N2Cc3nnc(C(F)(F)F)n3C[C@H]2C)ncc1CNc1cccc2c(N)nccc12 [Example 1342, (R)-N5-((4-methyl-6-(6-methyl-3-(trifluoromethyl)-5,6-dihydro-[1,2,4]triazolo[4,3-a]pyrazin-7(8H)-yl)pyridin-3-yl)methyl)isoquinoline-1,5-diamine] | 10 to 100
CN1CCN(C(=O)Cc2ccc(CNc3ccc4c(N)nccc4c3)cc2)CC1 [Example 2179, 2-(4-{[(1-aminoisoquinolin-6-yl)amino]methyl}phenyl)-1-(4-methylpiperazin-1-yl)ethanone] | 1000 to 3000
CN1CCN(CCc2ccc(CNc3ccc4c(N)nccc4c3)cc2)CC1 [Example 2180, 6-N-({4-[2-(4-methylpiperazin-1-yl)ethyl]phenyl}methyl)isoquinoline-1,6-diamine] | 300 to 1000
CC(=O)N1CCC(OCc2ccc(CNc3ccc4c(N)nccc4c3)c(F)c2)CC1 [Example 2200, 1-(4-((4-(((1-aminoisoquinolin-6-yl)amino)methyl)-3-fluorobenzyl)oxy)piperidin-1-yl)ethan-1-one] | 300 to 1000
CN1CCC(OCc2ccc(CN(C)c3cccc4c(N)nccc34)c(Cl)c2)CC1 [Example 2203, 5-N-[(2-chloro-4-{[(1-methylpiperidin-4-yl)oxy]methyl}phenyl)methyl]-5-N-methylisoquinoline-1,5-diamine] | 1000 to 3000
CN1CCC(OCc2ccc(CN(C)c3ccc4cnccc4c3)cc2)CC1 [Example 2204, N-methyl-N-[(4-{[(1-methylpiperidin-4-yl)oxy]methyl}phenyl)methyl]isoquinolin-6-amine] | 300 to 1000
CN1CCC(OCc2ccc(CNc3ccc4c(N)nccc4c3)c(F)c2)CC12COC2 (stereo not shown) [Example 2205, 6-N-({2-fluoro-4-[({5-methyl-2-oxa-5-azaspiro[3.5]nonan-8-yl}oxy)methyl]phenyl}methyl)isoquinoline-1,6-diamine] | 1000 to 3000
CN1CCC(OCc2ccc(S(=O)(=O)Nc3ccc4c(N)nccc4c3)cc2)CC1 [Example 2210, N-(1-aminoisoquinolin-6-yl)-4-(((1-methylpiperidin-4-yl)oxy)methyl)benzenesulfonamide] | 300 to 1000
CN1CC2(CC(OCc3ccc(CNc4ccc5c(N)nccc5c4)c(F)c3)CS2)C1 (stereo not shown) [Example 2252, 6-N-({2-fluoro-4-[({2-methyl-5-thia-2-azaspiro[3.4]octan-7-yl}oxy)methyl]phenyl}methyl)isoquinoline-1,6-diamine] | 300 to 1000
Nc1nccc2c(NCc3ccc(N4CCn5c(nnc5C(F)(F)F)C4)cc3F)cccc12 [Example 2256, N5-(2-Fluoro-4-(3-(trifluoromethyl)-5,6-dihydro-[1,2,4]triazolo[4,3-a]pyrazin-7(8H)-yl)benzyl)isoquinoline-1,5-diamine] | 10 to 100
Cc1cc(N2CCn3c(nnc3C(F)(F)F)C2)ccc1CNc1cccc2c(N)nccc12 [Example 2257, N5-(2-methyl-4-(3-(trifluoromethyl)-5,6-dihydro-[1,2,4]triazolo[4,3-a]pyrazin-7(8H)-yl)benzyl)isoquinoline-1,5-diamine] | 100 to 300
CN1CCC(Cn2cc(CNc3ccc4c(N)nccc4c3)cn2)CC1 [Example 3253, N6-((1-((1-methylpiperidin-4-yl)methyl)-1H-pyrazol-4-yl)methyl)isoquinoline-1,6-diamine] | 1000 to 3000
CN1CCC(CCn2cc(CNc3cccc4c(N)nccc34)cn2)CC1 [Example 3255, N5-((1-(2-(1-methylpiperidin-4-yl)ethyl)-1H-pyrazol-4-yl)methyl)isoquinoline-1,5-diamine] | 300 to 1000
CN1CCC(COc2cc(CNc3ccc4c(N)ncnc4c3)ccn2)CC1 [Example 4263, 7-N-({2-[(1-methylpiperidin-4-yl)methoxy]pyridin-4-yl}methyl)quinazoline-4,7-diamine] | 10000 to 40000
CN1CCC(COc2cc(CNc3cnc4[nH]cc(Cl)c4c3)ccn2)CC1 [Example 4264, 3-chloro-N-((2-((1-methylpiperidin-4-yl)methoxy)pyridin-4-yl)methyl)-1H-pyrrolo[2,3-b]pyridin-5-amine] | 10000 to 40000
